Measured values published in article PMC11187126, “Structure and dynamics of the pyroglutamylated RF-amide peptide QRFP receptor GPR103” (Nature Communications, 2024).
Like-named read-outs stand apart in the source and are kept apart here. No end group written: not given here.

Target: T1, GPR103 ΔCterm (Homo sapiens, UniProt Q96P65)
T1 construct: we truncated the C-terminal residues after G366 of human GPR103; expressed in transfected cells; host or cells: HEK293 cells, pCAGGS vector
T1 sequence (Q96P65 1-366): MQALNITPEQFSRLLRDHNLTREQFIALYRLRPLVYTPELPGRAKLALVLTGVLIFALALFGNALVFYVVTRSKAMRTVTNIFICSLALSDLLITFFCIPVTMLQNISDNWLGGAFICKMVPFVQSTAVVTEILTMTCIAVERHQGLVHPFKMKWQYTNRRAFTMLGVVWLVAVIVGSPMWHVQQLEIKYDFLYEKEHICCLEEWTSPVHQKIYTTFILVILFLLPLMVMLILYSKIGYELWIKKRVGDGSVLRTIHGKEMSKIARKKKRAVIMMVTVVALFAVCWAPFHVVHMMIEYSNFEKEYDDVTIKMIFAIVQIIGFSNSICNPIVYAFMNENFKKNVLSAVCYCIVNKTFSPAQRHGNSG
Test: TGFα shedding assay; Exp. level WT (1:20)
Assay type: cell-based

## TSGPLGNLAEELNGYSRKKGGFSFRF-NH2 [QRFP26]
Exp. #1
  Emax: 83.85 % WT
Exp. #2
  Emax: 86.40 % WT
Exp. #3
  Emax: 89.99 % WT
mean, read-out: Emax
  Emax: 86.8%
N = 3
  EC50: 11.2 nM
